Experimental data reported in US11702419B2, “Heterocyclic compound and use thereof” (Takeda Pharmaceutical Company Limited, priority 2018, dated 2023).

Biological target: T1, NMDA receptor composed of four subunits consisting of two sets of heterodimers of NR1 and NR2B (human GRIN1 and GRIN2B-expressing HEK293 cells) (Homo sapiens, UniProt Q13224)
T1 construct: host or cells: HEK293 (tetracycline-inducible expression)
Assay: NR2B Ca2+ influx assay
Format: cell-based
Conditions: 10 μM compound, glutamic acid/glycine-induced Ca2+ influx, FLIPR, read-out: inhibitory rate (10 μM compound concentration)
Experimental: In order to confirm an “antagonistic action on an NMDA receptor containing the NR2B subunit” which the compound of the present invention has, inhibitory effect on the NMDA receptor activation was evaluated using “NMDA receptor composed of four subunits consisting of two sets of heterodimers of NR1 and NR2B”-expressing human fetal renal cells, specifically human glutamate ionotropic receptor NMDA type subunit 1 (GRIN1) and human glutamate ionotropic receptor NMDA type subunit 2B (GRIN2B)-expressing HEK293 cells.
As an index of the NMDA receptor activation, intracellular calcium ion (Ca^2+) influx caused by bonding of glycine and glutamate to NR1 and NR2B respectively was used. HEK293 cells were purchased from ChanTest. The cells were cultured in a DMEM/F-12 (COSMO BIO, 10-092-CM) medium containing 10% FBS (fetal bovine serum, AusGene), 100 units/mL penicillin, 100 μg/mL streptomycin, 500 μg/mL neomycin, 100 μg/mL Zeocin and 5 μg/mL Blasticidin at 37° C., 5% CO2. The cells were detached from flask with trypsin the day before the assay, suspended in a seeding medium (DMEM (Invitrogen, 31053) containing 10% FBS, 100 units/mL penicillin and 100 μg/mL streptomycin) at 8×10^5 cells/mL, seeded by 25 μL per well in a 384-well plate (Falcon, 356663) at 20000 cells/well, and cultured overnight in an incubator. On the day of the assay, tetracycline (Wako Pure Chemical Industries, 209-16561) was diluted with the seeding medium at 2 μg/mL, and the dilution was added at 25 μL/well to the plate seeded with the cells, and the cells were cultured for 2 hr in an incubator. Thereafter, the medium was removed, and the cells were washed with 50 μL/well of assay buffer (137 mM NaCl, 4 mM KCl, 1.8 mM CaCl2, 10 mM HEPES (pH 7.2), 10 mM Glucose, and 0.1% BSA). Then, a loading buffer (assay buffer containing 2.5 μM Fluo-4AM, 2 mM Amaranth and 1 mM Tartrazine) was added thereto at 25 μL/well, and loading was performed in the incubator for 30 min, and then at room temperature for 15 min. The test compound was diluted with the above-mentioned assay buffer so as to adjust the concentration to 30 μM, the obtained solution (25 μL) was added thereto (the final concentration 10 μM), and the cells were stood for 15 min at room temperature. Using FLIPR (Molecular Devices), 25 μL of an assay buffer containing 30 μM glutamic acid and 30 μM glycine was added thereto, and the fluorescence signal was measured every 3 seconds for 5 min. The relative activity value (inhibitory rate) was calculated when the cumulative total value of the fluorescence value of a well added with a buffer free of glutamic acid and glycine, relative to the cumulative total value of the fluorescence value of each well are regarded as 100% inhibition. The obtained value was evaluated as an inhibitory activity.

T1 sequence (Q13224 27-1484, other chains not shown): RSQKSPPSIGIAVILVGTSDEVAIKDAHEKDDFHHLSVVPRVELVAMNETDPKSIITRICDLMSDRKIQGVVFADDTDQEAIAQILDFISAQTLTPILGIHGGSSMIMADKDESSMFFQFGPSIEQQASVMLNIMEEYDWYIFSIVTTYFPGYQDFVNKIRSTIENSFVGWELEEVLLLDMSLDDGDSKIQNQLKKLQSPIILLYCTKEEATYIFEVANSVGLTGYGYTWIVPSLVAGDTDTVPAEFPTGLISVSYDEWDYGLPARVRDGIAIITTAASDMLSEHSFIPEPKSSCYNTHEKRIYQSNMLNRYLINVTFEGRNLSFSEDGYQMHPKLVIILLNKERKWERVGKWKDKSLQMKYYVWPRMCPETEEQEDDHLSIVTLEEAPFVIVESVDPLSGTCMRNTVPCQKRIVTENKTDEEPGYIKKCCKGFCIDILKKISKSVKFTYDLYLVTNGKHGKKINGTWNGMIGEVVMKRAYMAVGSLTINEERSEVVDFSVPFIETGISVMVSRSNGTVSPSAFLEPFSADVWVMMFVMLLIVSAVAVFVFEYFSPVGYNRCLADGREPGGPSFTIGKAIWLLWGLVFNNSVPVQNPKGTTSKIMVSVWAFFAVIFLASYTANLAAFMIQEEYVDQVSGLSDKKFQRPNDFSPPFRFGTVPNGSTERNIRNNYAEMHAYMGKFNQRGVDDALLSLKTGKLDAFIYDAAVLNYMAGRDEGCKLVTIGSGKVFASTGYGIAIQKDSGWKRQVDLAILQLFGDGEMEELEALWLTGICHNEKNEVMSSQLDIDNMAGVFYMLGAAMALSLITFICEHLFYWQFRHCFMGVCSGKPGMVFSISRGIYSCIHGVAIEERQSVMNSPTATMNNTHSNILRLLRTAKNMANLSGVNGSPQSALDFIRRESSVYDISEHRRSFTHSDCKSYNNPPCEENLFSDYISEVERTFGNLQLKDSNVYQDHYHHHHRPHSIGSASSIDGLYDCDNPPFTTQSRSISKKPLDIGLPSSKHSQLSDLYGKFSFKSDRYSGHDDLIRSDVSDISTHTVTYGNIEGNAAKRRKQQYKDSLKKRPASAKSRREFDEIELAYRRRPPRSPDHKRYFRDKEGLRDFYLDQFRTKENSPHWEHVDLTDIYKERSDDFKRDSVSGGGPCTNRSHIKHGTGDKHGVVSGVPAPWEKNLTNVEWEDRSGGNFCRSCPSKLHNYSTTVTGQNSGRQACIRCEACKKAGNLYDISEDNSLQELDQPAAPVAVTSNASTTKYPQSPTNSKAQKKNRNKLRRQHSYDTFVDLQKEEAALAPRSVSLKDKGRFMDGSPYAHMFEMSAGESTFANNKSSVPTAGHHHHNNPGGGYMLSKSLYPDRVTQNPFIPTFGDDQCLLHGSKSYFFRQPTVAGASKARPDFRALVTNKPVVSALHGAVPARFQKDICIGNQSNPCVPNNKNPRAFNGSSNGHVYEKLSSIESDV

First: O=C(NCc1c(C2CC2)nn2ncccc12)c1ccc(OC(F)F)c(F)c1 [Example 29, N-((2-cyclopropylpyrazolo[1,5-b]pyridazin-3-yl)methyl)-4-(difluoromethoxy)-3-fluorobenzamide]
Second: O=C(NCc1c(C2CC2)nn2ncccc12)c1cnc(OC(F)F)c(F)c1 [Example 28, N-((2-cyclopropylpyrazolo[1,5-b]pyridazin-3-yl)methyl)-6-(difluoromethoxy)-5-fluoronicotinamide]
The inhibition at 10 µM of the first is higher: 89% for the first, 85% for the second.

Compared with `Cc1cn2ncc(CNC(=O)c3cnc(OC(F)F)c(F)c3)c2n1C` [Example 85, 6-(difluoromethoxy)-N-[(1,2-dimethyl-1H-imidazo[1,2-b]pyrazol-7-yl)methyl]-5-fluoropyridine-3-carboxamide], `Cc1nn2ncc(CNC(=O)c3cnc(OC(F)F)c(F)c3)c2n1C` [Example 70, 6-(difluoromethoxy)-N-[(1,2-dimethyl-1H-pyrazolo[1,5-b][1,2,4]triazol-7-yl)methyl]-5-fluoropyridine-3-carboxamide] is higher in inhibition at 10 µM: 97% for the first, 100% for the second.

`Cc1cnn2nnc(CNC(=O)c3cnc(OC(F)F)c(F)c3)c2c1` [Example 50, 6-(difluoromethoxy)-5-fluoro-N-((5-methyl[1,2,3]triazolo[1,5-b]pyridazin-3-yl)methyl)nicotinamide] and `Cc1cnn2ncc(CNC(=O)c3cnc(OC(F)F)c(F)c3)c2c1` [Example 39, 6-(difluoromethoxy)-5-fluoro-N-((5-methylpyrazolo[1,5-b]pyridazin-3-yl)methyl)nicotinamide] are the same in inhibition at 10 µM: 97% for the first, 97% for the second.

Compared with `O=C(NCc1nnn2ncccc12)c1ccc(OC(F)F)c(Cl)c1` [Example 30, 3-chloro-4-(difluoromethoxy)-N-([1,2,3]triazolo[1,5-b]pyridazin-3-ylmethyl)benzamide], `Cc1cccn2nnc(CNC(=O)c3ccc(OC(F)F)c(Cl)c3)c12` [Example 3, 3-chloro-4-(difluoromethoxy)-N-((4-methyl[1,2,3]triazolo[1,5-a]pyridin-3-yl)methyl)benzamide] is lower in inhibition at 10 µM: 97% for the first, 76% for the second.

First: O=C(NCc1cnn2ccn(CC(F)(F)F)c12)c1cnc(OC(F)F)c(F)c1 [Example 82, 6-(difluoromethoxy)-5-fluoro-N-{[1-(2,2,2-trifluoroethyl)-1H-imidazo[1,2-b]pyrazol-7-yl]methyl}pyridine-3-carboxamide]
Second: CCn1ccn2ncc(CNC(=O)c3cnc(OC(F)F)c(F)c3)c12 [Example 83, 6-(difluoromethoxy)-N-[(1-ethyl-1H-imidazo[1,2-b]pyrazol-7-yl)methyl]-5-fluoropyridine-3-carboxamide]
The inhibition at 10 µM of the first is lower: 72% for the first, 94% for the second.

Compared with `Cc1nn2ncccc2c1CNC(=O)c1cnc(OC(F)F)c(Cl)c1` [Example 46, 5-chloro-6-(difluoromethoxy)-N-((2-methylpyrazolo[1,5-b]pyridazin-3-yl)methyl)nicotinamide], `Cc1nn2ncccc2c1CNC(=O)c1cnc(OC(F)F)c(F)c1` [Example 17, 6-(difluoromethoxy)-5-fluoro-N-((2-methylpyrazolo[1,5-b]pyridazin-3-yl)methyl)nicotinamide] is lower in inhibition at 10 µM: 96% for the first, 94% for the second.

First: Cc1nn2cnccc2c1CNC(=O)c1ccc(OC(F)(F)F)c(F)c1 [Example 48, 3-fluoro-N-((2-methylpyrazolo[1,5-c]pyrimidin-3-yl)methyl)-4-(trifluoromethoxy)benzamide]
Second: O=C(NCc1cnn2ccncc12)c1ccc(OC(F)(F)F)c(F)c1 [Example 16, 3-fluoro-N-(pyrazolo[1,5-a]pyrazin-3-ylmethyl)-4-(trifluoromethoxy)benzamide]
The inhibition at 10 µM of the first is lower: 90% for the first, 97% for the second.

First: COc1ncc(C(=O)NCc2cnn3ncccc23)cc1F [Example 4, 5-fluoro-6-methoxy-N-(pyrazolo[1,5-b]pyridazin-3-ylmethyl)nicotinamide]
Second: COc1c(F)cc(C(=O)NCc2cnn3ncccc23)cc1F [Example 12, 3,5-difluoro-4-methoxy-N-(pyrazolo[1,5-b]pyridazin-3-ylmethyl)benzamide]
The inhibition at 10 µM of the first is lower: 85% for the first, 97% for the second.

Compared with `Cn1ccn2ncc(CNC(=O)c3ccc(OC(F)(F)F)c(F)c3)c12` [Example 57, 3-fluoro-N-((1-methyl-1H-imidazo[1,2-b]pyrazol-7-yl)methyl)-4-(trifluoromethoxy)benzamide], `O=C(NCc1cnn2ccn(CC(F)F)c12)c1ccc(OC(F)(F)F)c(F)c1` [Example 81, N-{[1-(2,2-difluoroethyl)-1H-imidazo[1,2-b]pyrazol-7-yl]methyl}-3-fluoro-4-(trifluoromethoxy)benzamide] is lower in inhibition at 10 µM: 97% for the first, 96% for the second.

Going from `COc1c(F)cc(C(=O)NCc2cnn3ccn(C)c23)cc1F` [Example 62, 3,5-difluoro-4-methoxy-N-((1-methyl-1H-imidazo[1,2-b]pyrazol-7-yl)methyl)benzamide] to `Cn1ccn2ncc(CNC(=O)c3cnc(OC(F)F)c(Cl)c3)c12` [Example 59, 5-chloro-6-(difluoromethoxy)-N-((1-methyl-1H-imidazo[1,2-b]pyrazol-7-yl)methyl)nicotinamide], the inhibition at 10 µM rises from 95% to 97%.

Going from `O=C(NCc1cnn2ncccc12)c1ccc(OC(F)F)c(F)c1` [Example 15, 4-(difluoromethoxy)-3-fluoro-N-(pyrazolo[1,5-b]pyridazin-3-ylmethyl)benzamide] to `O=C(NCc1cnn2ncccc12)c1ccc(OC(F)(F)F)c(F)c1` [Example 5, 3-fluoro-N-(pyrazolo[1,5-b]pyridazin-3-ylmethyl)-4-(trifluoromethoxy)benzamide], the inhibition at 10 µM rises from 98% to 99%.

First: O=C(NCc1nnn2ccccc12)c1cnc(OC(F)F)c(F)c1 [Example 14, 6-(difluoromethoxy)-5-fluoro-N-([1,2,3]triazolo[1,5-a]pyridin-3-ylmethyl)nicotinamide]
Second: Cc1ccnn2nnc(CNC(=O)c3cnc(OC(F)F)c(F)c3)c12 [Example 53, 6-(difluoromethoxy)-5-fluoro-N-((4-methyl[1,2,3]triazolo[1,5-b]pyridazin-3-yl)methyl)nicotinamide]
The inhibition at 10 µM of the first is higher: 94% for the first, 84% for the second.

Compared with `CCOc1nn2ncccc2c1CNC(=O)c1ccc(OC(F)F)c(F)c1` [Example 25, 4-(difluoromethoxy)-N-((2-ethoxypyrazolo[1,5-b]pyridazin-3-yl)methyl)-3-fluorobenzamide], `COCc1nn2ncccc2c1CNC(=O)c1cnc(OC(F)F)c(F)c1` [Example 31, 6-(difluoromethoxy)-5-fIuoro-N-((2-(methoxymethyl)pyrazolo[1,5-b]pyridazin-3-yl)methyl)nicotinamide] is higher in inhibition at 10 µM: 78% for the first, 84% for the second.

Compared with `Cn1ccn2ncc(CNC(=O)c3ccc(OC(F)(F)F)cc3)c12` [Example 66, N-((1-methyl-1H-imidazo[1,2-b]pyrazol-7-yl)methyl)-4-(trifluoromethoxy)benzamide], `Cn1ccn2ncc(CNC(=O)c3ccc(OC(F)(F)F)nc3)c12` [Example 64, N-((1-methyl-1H-imidazo[1,2-b]pyrazol-7-yl)methyl)-6-(trifluoromethoxy)nicotinamide] is lower in inhibition at 10 µM: 98% for the first, 96% for the second.

Going from `O=C(NCc1cnn2nccnc12)c1ccc(OC(F)(F)F)c(F)c1` [Example 47, 3-fluoro-N-(pyrazolo[1,5-b][1,2,4]triazin-8-ylmethyl)-4-(trifluoromethoxy)benzamide] to `Cc1ccnn2ncc(CNC(=O)c3ccc(OC(F)(F)F)c(F)c3)c12` [Example 20, 3-fluoro-N-((4-methylpyrazolo[1,5-b]pyridazin-3-yl)methyl)-4-(trifluoromethoxy)benzamide], the inhibition at 10 µM rises from 93% to 97%.

Compared with `O=C(NCc1cnn2ccn(CC(F)F)c12)c1cnc(OC(F)F)c(F)c1` [Example 79, N-{[1-(2,2-difluoroethyl)-1H-imidazo[1,2-b]pyrazol-7-yl]methyl}-6-(difluoromethoxy)-5-fluoropyridine-3-carboxamide], `COc1c(F)cc(C(=O)NCc2nnn3ccccc23)cc1F` [Example 41, 3,5-difluoro-4-methoxy-N-([1,2,3]triazolo[1,5-a]pyridin-3-ylmethyl)benzamide] is lower in inhibition at 10 µM: 87% for the first, 86% for the second.
